# Where “and” joins values, the source holds several entries; their conditions need not be identical. Identical values can stand only once.
# Tested on: subjects with idiopathic hypersomnia (IH)
# Assay: Part 6 IH: Maintenance of Wakefulness Test (MWT) sleep latency
# Type: in vivo, human
# Settings: for LS mean difference vs placebo in change from baseline, average MWT sleep latency: 2-8 hours post-dose; for Change from Day −1 in Average Sleep Latency on the MWT, LSM / Change from Day −1 in Average Sleep Latency on the MWT, LSM difference vs placebo: N = 8; for Average Sleep Latency on the MWT, Change from Day −1, Mean (SD) / Average Sleep Latency on the MWT, Change from Day −1, Median / Average Sleep Latency on the MWT, Dosing Day, Mean (SD) / Average Sleep Latency on the MWT, Dosing Day, Median: n = 8
# Method: The Treatment Visit (Visit 2) began on Day −2, when each subject's eligibility criteria were reviewed, and eligible subjects were admitted to the clinic. Screening assessments and eligibility criteria review continued after admission until Day 1, prior to randomization and dosing. On Day −1, approximately 25 hours prior to study drug administration (on Day 1), baseline assessments for Maintenance of Wakefulness Test (MWT) began and were collected in a series of trials over approximately 10 hours.
# At specified time points (Parts 5 and 6), MWT assessments were performed and took up to 40 minutes to complete. During the MWT trials, subjects were seated in a bed or reclining chair in a darkened room with their back and head supported such that their neck is not uncomfortably flexed or extended. Subjects were instructed to sit still and remain awake for as long as possible during each 40-minute trial. If the subject fell asleep during a trial, they were awakened, and the trial was terminated. […] Upon completion of the trial, the subject returned to a normal environment/ambiance and remained awake (and were awakened if they fall asleep) until the next trial.
# Once Parts 5 and 6 were completed, the EEG data recorded during the MWT, as well as the technician notes, were transferred to the EEG vendor for further analysis. Technician notes were also maintained for transfer to Sponsor at the end of the study. A precise assessment of sleep latency was conducted by an experienced sleep scorer from the EEG vendor, and spectral analysis was performed on the EEG data recorded during MWT to assess absolute and relative powers in standard frequency bands (i.e., qEEG). All raw data and analysis results were transferred to the Sponsor.
# For the changes from baseline in average sleep latency across the first 4 sessions of the MWT, descriptive statistics were provided by dose level. Mixed model with repeated measure (MMRM) for the 4-period crossover design were conducted with the change from baseline as a dependent variable, and the dose level and the period as fixed factors. The differences in the least square means between each Compound A dose level and the placebo (each Compound A dose level—the placebo), and the 2-sided CIs were provided.
# Evaluation of Compound A effects on average sleep latency across 4 timepoints of MWT (2-, 4-, 6-, and 8-hours post-dose) has been conducted at each of the crossover periods (Days 1, 3, 5 and 7), testing placebo, and active dose levels of 5, 12, and 25 mg in the patients with IH compared to placebo. At pre-dose baseline on Day −1, MWT assessment was taken at similar times (2-, 4-, 6-, and 8-hours) as planned on dosing days assuming a dosing time of approximately 9 AM. Mean (SD) of baseline MWT average across the 4 time points on Day −1 was 22.61 (9.294), with high variability observed for IH subjects.
smiles,measurement,setting,value
"CS(=O)(=O)N[C@H]1CCCN2C(=O)COc3ccccc3C3CCC(CC3)OCC12 (stereo partly drawn) [Compound A, N-[(4S,4aR,7α,10α)-1,2,3,4,4a,5,7,8,9,10,16,17-dodecahydro-17-oxo-7,10-ethanopyrido[1,2-d][1,7,4]benzodioxaazacyclotridecin-4-yl]methanesulfonamide]","LS mean difference vs placebo in change from baseline, average MWT sleep latency",5 mg,8.07 min and 8 min
same,"Change from Day −1 in Average Sleep Latency on the MWT, LSM",5 mg,6.35 min
same,"Change from Day −1 in Average Sleep Latency on the MWT, LSM difference vs placebo",5 mg,8.07 min
same,"Average Sleep Latency on the MWT, Change from Day −1, Mean (SD)",5 mg,6.35 (10.348) minutes
same,"Average Sleep Latency on the MWT, Change from Day −1, Median",5 mg,4.75 min
same,"Average Sleep Latency on the MWT, Dosing Day, Mean (SD)",5 mg,28.96 (9.196) minutes
same,"Average Sleep Latency on the MWT, Dosing Day, Median",5 mg,29.13 min
same,observed mean MWT score over 8-hour period post-dose,12 mg,≥ 30 min
same,"LS mean difference vs placebo in change from baseline, average MWT sleep latency",12 mg,11.05 min and 11 min
same,"Change from Day −1 in Average Sleep Latency on the MWT, LSM",12 mg,9.33 min
same,"Change from Day −1 in Average Sleep Latency on the MWT, LSM difference vs placebo",12 mg,11.05 min
same,"Average Sleep Latency on the MWT, Change from Day −1, Mean (SD)",12 mg,9.33 (11.468) minutes
same,"Average Sleep Latency on the MWT, Change from Day −1, Median",12 mg,7.00 min
same,"Average Sleep Latency on the MWT, Dosing Day, Mean (SD)",12 mg,31.94 (7.814) minutes
same,"Average Sleep Latency on the MWT, Dosing Day, Median",12 mg,32.69 min
same,observed mean MWT score over 8-hour period post-dose,25 mg,≥ 30 min
same,"LS mean difference vs placebo in change from baseline, average MWT sleep latency",25 mg,17.67 min and 18 min
same,"Change from Day −1 in Average Sleep Latency on the MWT, LSM",25 mg,15.95 min
same,"Change from Day −1 in Average Sleep Latency on the MWT, LSM difference vs placebo",25 mg,17.67 min
same,"Average Sleep Latency on the MWT, Change from Day −1, Mean (SD)",25 mg,15.95 (10.946) minutes
same,"Average Sleep Latency on the MWT, Change from Day −1, Median",25 mg,15.31 min
same,"Average Sleep Latency on the MWT, Dosing Day, Mean (SD)",25 mg,38.56 (2.821) minutes
same,"Average Sleep Latency on the MWT, Dosing Day, Median",25 mg,40.00 min

# Reference: US20250186405A1, “Compound For Use In Treating Narcolepsy” (Alkermes, Inc., priority 2023, published 2025)
